Active and inactive are the calls of the source.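 The calls were made as follows: active = compounds giving half or more protection of infected cells from virus-caused growth loss, again on retest; inactive = the rest.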 Where a SMILES comes first, the peptide text is derived from it.
Tested on: CEM cells HIV-1 protection, formazan growth assay
Assay: NCI AIDS Antiviral Assay
Settings: for IC50: measured here: growth of uninfected CEM cells
Outline: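 Human CEM cells, uninfected and HIV-1-infected, received five drug concentrations, and growth was read by soluble formazan assay. Compounds giving at least 50% protection were retested; reproducible 100% protection defined confirmed active.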

| SMILES | EC50 [µM] | IC50 [µM] | outcome |
| --- | --- | --- | --- |
| CCOC(=O)c1[nH]c2c(cc(C(=O)C(F)(F)F)c3ccccc32)c1C(F)(F)F | > 17.8 | > 17.8 | – |
| Cc1ccc(SC2CC3CC2C2COCC32)cc1 (centres undefined) | > 85.1 | 47.9 | – |
| CNCC(=O)NC(CO)C(=O)NC(CO)C(=O)NC1C(C(N)=O)OC(n2ccc(N)nc2=O)C(O)C1O (centres undefined) | – | – | inactive |
| COc1cc2c(c(O)c1O)C(=O)C1CCC(=O)N1C2c1cccc2ccccc12 (centres undefined) | > 50.1 | 35.5 | – |
| O=c1oc2ccc(Br)cc2cc1-n1nnc2cc([N+](=O)[O-])ccc21 | > 17.4 | > 17.4 | – |
| Nc1ccccc1C(=O)NNC(=O)c1ccccc1N | > 200 | > 200 | – |
| CC[C@]1(O)CC[C@H]2[C@@H]3CCC4=CC(=O)CC[C@@H]4[C@H]3CC[C@@]21CC | > 200 | 49 | – |
| O=C(c1ccccc1)C(O)(CC(c1ccccc1)[P+](c1ccccc1)(c1ccccc1)c1ccccc1)c1ccccc1 (centres undefined) | > 200 | 1.17 | – |
| CCOC(=O)N1C2C=C(C)C(C3C(C)C(=O)N31)N(C(=O)c1ccccc1)O2 (centres undefined) | > 355 | > 355 | – |
| CCC1Oc2c(CC=C(C)C)c(O)c(C(O)C(C)CC)c3oc(=O)cc1c23 (centres undefined) | > 200 | 26.3 | – |
| NCCCN(CCCCN(CCCN)C(=O)OCc1ccccc1)C(=O)OCc1ccccc1 | – | – | inactive |
| CCC[CH2][Sn]([CH2]CCC)([O]C(=O)Cc1ccc(F)cc1)[O]C(=O)Cc1ccc(F)cc1 | > 25.1 | 4.79 | – |
| O=c1[nH]nc(-c2ccccc2)n1/N=C/c1ccccc1Cl | > 200 | 74.1 | – |
| O=C(c1ccccc1)c1cccc(C(=O)c2ccccc2)n1 | > 66.1 | > 66.1 | – |
| O=C(O)C1C2CCC(O2)C1C(=O)O (centres undefined) | > 1350 | > 1350 | – |
| CCCCn1c(=O)cc(C(=O)O)c2ccccc21 | > 200 | > 200 | – |
| COC1=CC(=O)NCCN1 | 135 | 479 | – |
| CC1(C)N([O-])[N+](=O)C1(C)O (centres undefined) | > 200 | > 200 | – |
| N#CCCC(CCC#N)(CCC#N)[N+](=O)[O-] | > 200 | > 200 | – |
| NCc1ccc(-c2ccc(CN)s2)s1 | > 28.2 | 13.2 | – |
| O=C1NC(N2CCOCC2)=N/C1=C\c1ccc(O)cc1 | > 200 | 105 | – |

| SMILES | EC50 [µM] | IC50 [µM] | outcome |
| --- | --- | --- | --- |
| Clc1ccc(C2NCCNCc3ccccc32)cc1 (centres undefined) | – | – | inactive |
| C=CCc1cccc(/C(O)=C/C(=O)/C=C/c2ccccc2Cl)c1O | > 200 | 35.5 | – |
| COc1ccc(/C=C2\CCC/C(=C\c3ccc(O)c(CN4CCCCC4)c3)C2=O)cc1 | > 200 | 3.16 | – |
| CCCCC(CC)CN=Cc1c(O)c(O)c(C(C)C)c2cc(C)c(-c3c(C)cc4c(C(C)C)c(O)c(O)c(C=NCC(CC)CCCC)c4c3O)c(O)c12 (centres undefined) | > 200 | 145 | – |
| O=C(NCCCN(CCCCN(CCCNC(=O)c1cc(S(=O)(=O)O)cc(O)c1O)C(=O)c1cc(S(=O)(=O)O)cc(O)c1O)C(=O)c1cc(S(=O)(=O)O)cc(O)c1O)c1cc(S(=O)(=O)O)cc(O)c1O | > 200 | 72.4 | – |
| CNC(=O)/C(C#N)=C(\N)N1CCCC1 | > 200 | > 200 | – |
| NC1CSSCC(C(=O)O)NC1=O (centres undefined) | > 61.7 | > 61.7 | – |
| COc1ccccc1NC(=O)c1nc2ccc([N+](=O)[O-])cc2nc1C | > 148 | > 148 | – |
| CSC(=S)N(C)c1nc(=[N+](C)C)ss1 | – | – | inactive |
| O=C(/N=N/C(=O)N1CCOCC1)N1CCOCC1 | 75.9 | 87.1 | – |
| N#CCC(=O)N/N=C(\CCN1CCCC1)CC(c1ccccc1)c1c(O)c2ccccc2oc1=O (centres undefined) | > 97.7 | 55 | – |
| CCOC(=O)/C(C#N)=C/c1ccc(CO)o1 | > 200 | > 200 | – |
| CCSc1ccc(N=[N+]([O-])c2ccc(SCC)c(Cl)c2)cc1Cl | > 50.1 | > 50.1 | – |
| CCOC(=O)/C(=C/c1ccc(N(C)C)cc1)C(=O)c1ccccc1 | > 8.51 | > 8.51 | – |
| N#Cc1nc(Nc2cccc3ccccc23)sc1N | > 135 | 60.3 | – |
| O=C(N/N=C/c1ccccn1)c1ccccc1[O-].O=C(N/N=C/c1ccccn1)c1ccccc1[O-].[Co+2] | > 200 | 33.9 | – |
| S=C1CNC(=S)CN1 | – | – | inactive |
| Cn1cc(NC(=O)c2cc(N)nn2C)cc1C(=O)Nc1ccc2cc(S(=O)(=O)O)cc(S(=O)(=O)O)c2c1 | > 200 | > 200 | – |
| CC(O)C(NC(=O)C(CCCCN)NC(=O)C(CC(=O)O)NC(=O)C(N)Cc1ccccc1)C(=O)NC(CO)C(=O)NC(CC(N)=O)C(=O)NC(CO)C(=O)N1CCCC1C(=O)NC(Cc1ccc(O)cc1)C(=O)NC(Cc1cnc[nH]1)C(=O)NC(Cc1ccccc1)C(=O)O (centres undefined) (H-FDKTSNSPYHF-OH; configuration not given here) | > 46.8 | > 46.8 | – |
| O=C1OC(Cc2ccccc2)=C(Cl)C(Cl)(Cc2ccccc2)C1Cl (centres undefined) | > 200 | 5.25 | – |
| O=C(NNC(=O)c1ccncc1)c1ccncc1 | > 200 | > 200 | – |
